# According to patent publication US11274332B2, “Methods of administering 3,4-diaminopyridine” (SERB SA, priority 2011, dated 2022):
# How the values were obtained:
# [1] = Rat PK study, IV and oral TID amifampridine phosphate (Example 4); type: in vivo; settings: rat, after amifampridine phosphate
# Protocol: The objective of this study was to determine the absolute bioavailability of amifampridine phosphate and the pharmacokinetics of amifampridine and its 3-N-acetyl metabolite upon single-dose IV and single-day oral dose (TID) administration.
# Amifampridine phosphate was administered by IV bolus at 0.8 mg/kg (in saline) to 6 rats/sex and by oral gavage (in water) TID (approximately 6 hours apart) at dose levels of 2, 8, and 25 mg/kg/dose (equivalent to 6, 24, and 75 mg/kg/day) to 12 rats/sex/group, with oral Dose 1 given to fasted rats and Dose 2 and 3 with food ad libitum. For IV bolus dose and oral Dose 1 (dose administration No. 1), blood samples were collected from three animals/sex/timepoint at predose and 0.083 (IV only), 0.17, 0.25, 0.33, 0.5, 0.75, 1, 1.25 (IV only), 1.5, 2, 2.5, 3, and 6 hours post-dose; 0.17, 0.5, and 6 hours following the second oral dose (dose administration No. 2); and 0.17, 0.25, 0.33, 0.5, 0.75, 1, 1.5, 2, 3, 4, 6, 8, and 10 hours following the third oral dose (dose administration No. 3). The second and third oral doses were given at 6 and 12 hours, respectively, after the first dose. LC-MS/MS was used to quantify amifampridine, 3-N-acetyl and 4-N-acetyl amifampridine metabolites in rat plasma samples. […] Noncompartmental analysis was applied to the mean plasma amifampridine and 3-N-acetyl metabolite concentration data for male and female rats. […]
# hKv1.7 = target: T1, hKv1.7 (Homo sapiens, UniProt Q96RP8); assay: Whole cell patch clamp inhibition of hKv1.7 current in transiently transfected CHO cells (Example 5); type: cell-based; settings: 10,000 μM in HB-PS
# T1 construct: expressed in transfected cells; host or cells: CHO cells (transient transfection)
# Protocol: Chemicals used in solution preparation were purchased from Sigma-Aldrich (St. Louis, Mo.), unless otherwise noted, and were of ACS reagent grade purity or higher. Stock solutions of each test article (100.104 mM and 1.00 mM 3,4-DAP phosphate and 100.023 mM and 336.335 mM N-(4-aminopyridin-3-yl) acetamide HCl) were prepared in sterile water, stored refrigerated and used within one day. […] All test article solutions contained 3% sterile water. The test articles were prepared in sufficient volume to run the assay (typically 50 mL).
# CHO cells, transiently transfected with hKv1.7, were cryopreserved in 90% FBS and 10% DMSO. Frozen vials of cells were thawed rapidly in a 37° C. water bath. Cells were transferred to a 15 mL conical tube, 10 mL of growth media (Ham's/F12-PS/10% FBS) was added, the suspension was gently mixed and the tube was centrifuged at approximately 250×g for 5 min. The medium was removed, the cell pellet was resuspended in 20 mL of medium, and cells were triturated to disperse cell clumps. For electrophysiology use, 2 mL of the cell suspension was plated in each 35 mm cell culture dish. Recording began 2-3 hours after plating once the cells settled out of the media and adhered to the bottom of the culture dish. […]
# Cells were transferred to the recording chamber and superfused with vehicle control solution. […] Onset and steady state inhibition of hKv1.7 current due to the test article was measured using a pulse pattern with fixed amplitudes (depolarization: +10 mV amplitude, 300 ms duration) repeated at 10-second intervals from a holding potential of −80 mV. Current amplitude was measured at the end of the step to +10 mV. Current was monitored until a new steady state was achieved. […] The IC50 for sustained current was calculated for 3,4-DAP phosphate salt.
# For 3,4-DAP phosphate salt, the concentration-response relationship was evaluated at seven concentrations (1, 10, 30, 100, 300, 1000 and 3000 μM) and for N-(4-aminopyridin-3-yl) acetamide HCl salt, the concentration-response relationship was evaluated at three concentrations (100, 1000 and 3000 μM).
# T1 sequence (Q96RP8 whole entry): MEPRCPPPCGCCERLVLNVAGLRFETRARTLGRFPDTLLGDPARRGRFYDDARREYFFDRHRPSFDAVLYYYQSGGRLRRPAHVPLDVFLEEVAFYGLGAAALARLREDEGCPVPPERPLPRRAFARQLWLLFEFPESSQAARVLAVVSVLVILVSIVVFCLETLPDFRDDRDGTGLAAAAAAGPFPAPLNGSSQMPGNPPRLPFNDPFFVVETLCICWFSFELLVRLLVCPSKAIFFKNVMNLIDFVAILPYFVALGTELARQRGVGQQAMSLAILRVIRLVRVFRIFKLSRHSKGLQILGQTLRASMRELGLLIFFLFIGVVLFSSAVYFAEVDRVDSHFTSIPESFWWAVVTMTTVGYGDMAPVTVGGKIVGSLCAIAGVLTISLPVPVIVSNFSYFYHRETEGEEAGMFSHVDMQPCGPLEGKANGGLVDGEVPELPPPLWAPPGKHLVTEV
Structure (SMILES),Cmax in plasma [1] [ng/mL],solubility in test formulation (hKv1.7)
CC(=O)Nc1ccncc1N [4-N-acetyl metabolite],< 25,
CC(=O)Nc1cnccc1N.Cl [N-(4-aminopyridin-3-yl) acetamide HCl],,visible precipitate was observed
